The source made the active and inactive calls. No cut-off for these calls is given here.
What was measured:
[1] = target: T1, Protein deacetylase HDAC6 (Homo sapiens) (UniProt Q9UBN7); experiment: Inhibition of HDAC6 in human RPMI-8226 cells assessed as increase in acetylated alpha-tubulin level at 0.25 to 1 uM incubated for 24 hrs by western blot analysis; format: cell-based; settings: dose 0.25-1 µM
T1 sequence (whole entry): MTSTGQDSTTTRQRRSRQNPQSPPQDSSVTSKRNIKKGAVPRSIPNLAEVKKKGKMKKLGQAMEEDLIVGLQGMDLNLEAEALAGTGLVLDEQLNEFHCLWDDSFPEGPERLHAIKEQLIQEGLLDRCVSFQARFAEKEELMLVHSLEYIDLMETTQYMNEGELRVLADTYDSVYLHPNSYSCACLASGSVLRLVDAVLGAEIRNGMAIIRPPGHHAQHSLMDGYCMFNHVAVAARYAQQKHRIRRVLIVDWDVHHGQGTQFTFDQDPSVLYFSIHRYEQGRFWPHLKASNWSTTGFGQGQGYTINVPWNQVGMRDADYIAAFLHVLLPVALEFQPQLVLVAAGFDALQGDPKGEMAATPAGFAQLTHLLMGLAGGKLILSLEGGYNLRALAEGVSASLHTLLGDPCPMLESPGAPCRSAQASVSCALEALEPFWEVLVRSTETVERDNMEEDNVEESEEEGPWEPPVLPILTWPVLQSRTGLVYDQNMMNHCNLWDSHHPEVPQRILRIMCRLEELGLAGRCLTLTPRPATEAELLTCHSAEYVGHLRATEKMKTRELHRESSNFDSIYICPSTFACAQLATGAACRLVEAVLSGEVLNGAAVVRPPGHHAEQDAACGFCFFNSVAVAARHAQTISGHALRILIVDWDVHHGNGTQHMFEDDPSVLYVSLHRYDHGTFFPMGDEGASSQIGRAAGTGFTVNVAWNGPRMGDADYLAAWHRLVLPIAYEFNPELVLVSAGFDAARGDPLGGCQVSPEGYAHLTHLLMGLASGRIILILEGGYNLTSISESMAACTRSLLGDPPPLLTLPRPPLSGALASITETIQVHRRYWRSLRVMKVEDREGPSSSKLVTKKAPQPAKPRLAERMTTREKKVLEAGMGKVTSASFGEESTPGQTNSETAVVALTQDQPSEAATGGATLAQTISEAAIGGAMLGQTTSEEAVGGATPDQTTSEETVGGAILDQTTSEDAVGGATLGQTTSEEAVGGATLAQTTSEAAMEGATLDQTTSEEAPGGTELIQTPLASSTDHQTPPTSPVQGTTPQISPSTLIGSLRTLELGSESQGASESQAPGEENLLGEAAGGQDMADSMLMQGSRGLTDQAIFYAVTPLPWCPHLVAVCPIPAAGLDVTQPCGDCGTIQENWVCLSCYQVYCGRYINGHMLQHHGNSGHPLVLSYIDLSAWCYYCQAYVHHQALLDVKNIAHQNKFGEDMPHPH

[2] = target: T1, Protein deacetylase HDAC6 (Homo sapiens); experiment: Inhibition of HDAC6 in human RPMI-8226 cells assessed as increase in acetylated histone H4 level at 0.25 to 1 uM incubated for 24 hrs by western blot analysis; format: cell-based; settings: dose 0.25-1 µM
RPMI-8226 [3] = experiment: Increase in DR5 protein expression in human RPMI-8226 cells incubated for 24 hrs by western blot analysis; format: functional, cell-based; settings: dose 0.25-1 µM
RPMI-8226 [4] = experiment: Increase in TRAIL protein expression in human RPMI-8226 cells at 0.5 uM incubated for 24 hrs by western blot analysis; format: functional, cell-based
Mus musculus [5] = experiment: (§1) Anti-pulmonary fibrosis activity in bleomycin-induced idiopathic pulmonary fibrosis C57BL/6J mouse model assessed as decrease in lung damage by measuring decrease in inflammatory cell infiltration in lung at 25 to 50 mg/kg, ig administered daily via gavage and measured on day 14 by Hematoxylin-Eosin staining based analysis; format: functional, organism-based; settings: dose 25-50 mg/kg, time 14.0 day
Mus musculus [6] = experiment: as §1, with “infiltration in lungs at 25” for “infiltration in lung at 25”, “14 by Masson's trichrome staining based” for “14 by Hematoxylin-Eosin staining based”; format: functional, organism-based; settings: dose 25-50 mg/kg, time 14.0 day
Mus musculus [7] = experiment: Anti-pulmonary fibrosis activity in bleomycin-induced idiopathic pulmonary fibrosis C57BL/6J mouse model assessed as decrease in lung damage by measuring decrease in collagen deposition in lungs at 25 to 50 mg/kg, ig administered daily via gavage and measured on day 14 by Masson's trichrome staining based analysis; format: functional, organism-based; settings: dose 25-50 mg/kg, time 14.0 day
[8] = Toxicity against bleomycin-induced pulmonary fibrosis C57BL/6J mouse model assessed as effect on spleen morphological changes at 25 to 50 mg/kg, ig administered daily via gavage and measured on day 14 by Hematoxylin-Eosin staining based analysis; format: organism-based; settings: in vivo, po, 336 h, dose 25-50 mg/kg, time 14 day
[9] = Toxicity against silicosis C57BL/6J mouse model assessed as effect on liver morphological changes at 50 mg/kg, ig administered daily via gavage and measured on day 28 by Hematoxylin-Eosin staining based analysis; format: organism-based; settings: in vivo, po, 672 h, time 28 day
[10] = Toxicity against silicosis C57BL/6J mouse model assessed as effect on spleen morphological changes at 50 mg/kg, ig administered daily via gavage and measured on day 28 by Hematoxylin-Eosin staining based analysis; format: organism-based; settings: in vivo, po, 672 h, time 28 day

SMILES: O=C(NO)c1ccc(CN2C(=O)C3=C(CCN(Cc4cccc(Cl)c4)C3)N3CCN=C23)cc1
- inhibition [1]: Active
- inhibition [2]: Active
- Activity (RPMI-8226 [3]): Dose-dependent-effect; Higher Activity Compared To Positive Drug, 1 Um Compound Iic, Chidamide, Acy-1215
- Activity (RPMI-8226 [4]): Active; Comparable Activity To 1 Um Compound Iic And Greater Activity Compared To 1 Um Chidamide, Acy-1215
- Activity (Mus musculus [5]): Active
- Activity (Mus musculus [6]): Active
- Activity (Mus musculus [7]): Active
- Activity [8]: Non-toxic
- Activity [9]: Non-toxic
- Activity [10]: Non-toxic
